Data set [1] has as its target AChE from Electrophorus electricus (electric eel) (Electrophorus electricus, UniProt O42275). In words: In vitro AChE inhibition assay. Type of data set: biochemical.
Another data set has as its target BChE from equine serum (Equus caballus, UniProt P81908). The experiment in a line: biochemical. Type of data set: biochemical. As to conditions: for IC50 values (mean ± SD) BChE: BChE from equine serum.
In data set [2] the target is GluN2B containing NMDAR (GluN1/GluN2B) in HEK-293 cells (Homo sapiens, UniProt Q05586+Q13224). In words: Cell-based NMDAR activity assay. Particulars: for category of NMDAR inhibitor: based on NMDAR IC50; for antagonism of NMDAR activity, in words: initial screening studies; for inhibition at 100 µM / inhibition at 50 µM: HEK293, read-out: inhibition of NMDAR activity.
Sequence of GluN2B containing NMDAR (GluN1/GluN2B) in HEK-293 cells (Q13224 27-1484, species assumed, other chains not shown): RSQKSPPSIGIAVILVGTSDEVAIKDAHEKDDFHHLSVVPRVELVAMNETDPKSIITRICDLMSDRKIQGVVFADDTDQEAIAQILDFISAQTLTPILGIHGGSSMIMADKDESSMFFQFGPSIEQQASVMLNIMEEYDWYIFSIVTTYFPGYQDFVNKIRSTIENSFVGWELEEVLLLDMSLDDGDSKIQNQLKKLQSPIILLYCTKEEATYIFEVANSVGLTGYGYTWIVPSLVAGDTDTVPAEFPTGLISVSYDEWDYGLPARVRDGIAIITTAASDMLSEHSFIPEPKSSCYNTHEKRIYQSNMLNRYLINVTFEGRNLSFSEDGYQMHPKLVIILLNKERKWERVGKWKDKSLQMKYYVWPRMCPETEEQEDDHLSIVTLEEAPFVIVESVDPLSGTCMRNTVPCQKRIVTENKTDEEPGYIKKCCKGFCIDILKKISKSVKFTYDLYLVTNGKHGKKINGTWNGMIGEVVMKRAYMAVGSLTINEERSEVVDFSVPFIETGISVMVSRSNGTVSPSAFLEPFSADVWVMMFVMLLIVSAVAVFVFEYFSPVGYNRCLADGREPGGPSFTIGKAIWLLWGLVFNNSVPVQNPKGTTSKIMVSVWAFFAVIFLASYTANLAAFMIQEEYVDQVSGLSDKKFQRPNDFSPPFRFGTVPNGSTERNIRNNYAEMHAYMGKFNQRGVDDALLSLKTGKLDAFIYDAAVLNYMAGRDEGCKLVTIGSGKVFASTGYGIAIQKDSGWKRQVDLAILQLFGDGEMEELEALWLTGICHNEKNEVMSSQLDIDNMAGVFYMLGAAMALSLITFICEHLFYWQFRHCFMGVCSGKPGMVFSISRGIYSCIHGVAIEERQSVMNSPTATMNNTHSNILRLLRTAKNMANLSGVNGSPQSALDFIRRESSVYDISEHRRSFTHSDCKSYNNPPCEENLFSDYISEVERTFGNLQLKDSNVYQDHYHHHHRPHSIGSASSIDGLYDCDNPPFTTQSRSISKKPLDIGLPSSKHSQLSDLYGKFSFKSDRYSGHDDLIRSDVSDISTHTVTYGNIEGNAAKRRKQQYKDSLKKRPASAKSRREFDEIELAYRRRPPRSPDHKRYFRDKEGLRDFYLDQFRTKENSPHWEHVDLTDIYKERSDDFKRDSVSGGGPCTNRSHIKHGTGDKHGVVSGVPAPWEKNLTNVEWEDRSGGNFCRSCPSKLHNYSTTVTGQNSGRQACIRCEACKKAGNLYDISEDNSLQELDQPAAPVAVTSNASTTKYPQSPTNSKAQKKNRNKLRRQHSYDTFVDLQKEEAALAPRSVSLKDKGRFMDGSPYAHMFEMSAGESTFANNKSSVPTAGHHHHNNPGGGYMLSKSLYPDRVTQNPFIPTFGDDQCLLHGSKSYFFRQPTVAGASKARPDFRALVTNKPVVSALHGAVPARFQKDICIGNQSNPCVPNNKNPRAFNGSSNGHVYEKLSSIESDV

In data set [3] the test system is rat primary cortical neurons. The experiment in a line: Glutamate-induced excitotoxicity, MAP2 immunostaining and DAPI staining. Type of data set: cell-based. As to conditions: DIV9 neurons, 100 µM glutamate and 10 µM glycine.
The subject of the next data set is HepG2 cells. The experiment in a line: MTT cytotoxicity assay on HepG2 cells. Particulars: 10-300 μM, 24 h.

Consider 16 compounds from paper PMC8379669 (Computational and Structural Biotechnology Journal, 2021).

The structures appear in SMILES notation.

What is called IC50 is the point on the concentration scale where inhibition reaches its midpoint. As a reminder, the inhibition is the drop in the measured response relative to a control, in per cent.

Sequence of AChE from Electrophorus electricus (electric eel) (O42275 24-633): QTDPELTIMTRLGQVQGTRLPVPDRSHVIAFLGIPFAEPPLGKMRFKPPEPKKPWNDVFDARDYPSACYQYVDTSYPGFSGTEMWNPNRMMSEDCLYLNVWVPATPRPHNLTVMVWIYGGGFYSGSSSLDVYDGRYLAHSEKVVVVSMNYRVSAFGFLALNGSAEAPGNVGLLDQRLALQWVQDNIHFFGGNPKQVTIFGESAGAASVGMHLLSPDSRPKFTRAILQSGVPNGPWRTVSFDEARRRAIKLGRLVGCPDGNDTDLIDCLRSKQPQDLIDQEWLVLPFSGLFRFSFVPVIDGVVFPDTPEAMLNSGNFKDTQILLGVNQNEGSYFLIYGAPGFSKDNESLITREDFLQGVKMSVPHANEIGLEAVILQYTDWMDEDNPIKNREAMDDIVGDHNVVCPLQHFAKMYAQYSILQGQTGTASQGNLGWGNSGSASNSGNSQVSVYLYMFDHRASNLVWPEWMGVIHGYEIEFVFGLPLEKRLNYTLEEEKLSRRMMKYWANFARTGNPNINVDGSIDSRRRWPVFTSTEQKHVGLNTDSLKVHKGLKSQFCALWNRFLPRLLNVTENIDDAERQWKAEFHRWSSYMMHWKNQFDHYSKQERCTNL
Sequence of BChE from equine serum (P81908 whole entry): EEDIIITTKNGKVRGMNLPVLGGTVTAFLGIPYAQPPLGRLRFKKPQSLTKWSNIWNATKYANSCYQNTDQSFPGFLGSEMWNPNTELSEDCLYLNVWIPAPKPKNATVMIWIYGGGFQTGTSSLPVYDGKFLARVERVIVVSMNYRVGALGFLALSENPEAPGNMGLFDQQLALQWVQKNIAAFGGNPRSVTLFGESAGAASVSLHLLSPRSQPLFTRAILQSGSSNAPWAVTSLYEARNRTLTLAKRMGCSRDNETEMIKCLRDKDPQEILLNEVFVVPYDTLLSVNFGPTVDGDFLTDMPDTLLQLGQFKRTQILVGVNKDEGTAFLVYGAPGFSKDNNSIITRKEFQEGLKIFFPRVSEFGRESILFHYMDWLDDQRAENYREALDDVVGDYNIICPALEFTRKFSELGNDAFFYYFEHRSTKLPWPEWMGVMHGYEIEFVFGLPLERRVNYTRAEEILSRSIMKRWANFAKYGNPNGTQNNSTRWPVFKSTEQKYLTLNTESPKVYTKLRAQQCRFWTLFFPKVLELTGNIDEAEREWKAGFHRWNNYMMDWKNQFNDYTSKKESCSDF

Take `CCOC(=O)C1CCc2nc3cc(Br)ccc3c(N)c2C1` (stereo not drawn) [Compound 5, Ethyl 9-amino-6-bromo-1,2,3,4-tetrahydroacridine-2-carboxylate]: the IC50 in data set [1] stood at 100 ± 7.2 nM; against BChE from equine serum it was 7380 ± 210 nM.

Take `NNC(=O)C1CCc2nc3cc(Br)ccc3c(N)c2C1` (stereo not drawn) [Compound 8, 9-Amino-6-bromo-1,2,3,4-tetrahydroacridine-2-carbohydrazide]: the results for the IC50 (in data set [1]; against BChE from equine serum) were 138 ± 16.1 nM and 20400 ± 2110 nM, respectively.

`CCOC(=O)C1CCc2nc3cc(-c4cnn(C)c4)ccc3c(N)c2C1` (stereo not drawn) [Compound 10, Ethyl-9-amino-6-(1-methyl-1H-pyrazol-4-yl)-1,2,3,4-tetrahydroacridine-2-carboxylate]: the figures for the IC50 (in data set [2]; in data set [1]; against BChE from equine serum) were 31100 ± 4800 nM, 107 ± 8.7 nM and 4390 ± 280 nM, respectively.

Turning to `CNC(=O)C1CCc2nc3cc(-c4cnn(C)c4)ccc3c(N)c2C1` (stereo not drawn) [Compound 14, 9-amino-N-methyl-6-(1-methyl-1H-pyrazol-4-yl)-1,2,3,4-tetrahydroacridine-2-carboxamide], the “condensed nuclei / viable cells (DAPI staining) after glutamate” value (“condensed nuclei / viable cells” for short) in data set [3] is listed as “clear decrease in the number of condensed nuclei”. In addition, the “decrease in MAP2 positive cells and loss of neuronal architecture caused by glutamate” value in data set [3] is on record as “prevented”. Also, the IC50 in data set [2] turned out to be 33900 ± 8410 nM; in data set [1] it was 132 ± 7.7 nM; on BChE from equine serum, 16400 ± 540 nM. In data set [2], the “category of NMDAR inhibitor” value was “reduced”. The “cytotoxicity on HepG2 cells, in words” value in the data set on HepG2 cells is given as “non-toxic”.

With `CCOC(=O)C1CCc2nc3ccccc3c(N)c2C1` (stereo not drawn) [Compound 16, ethyl 9-amino-1,2,3,4-tetrahydroacridine-2-carboxylate], the “antagonism of NMDAR activity, in words” value in data set [2] was “could not effectively block NMDAR activity”. Moreover, the values for the IC50 (in data set [1]; on BChE from equine serum) were 42.2 ± 2.7 nM and 3820 ± 250 nM, respectively.

`NNC(=O)C1CCc2nc3ccccc3c(N)c2C1` (stereo not drawn) [Compound 17, 9-amino-1,2,3,4-tetrahydroacridine-2-carbohydrazide]: the “antagonism of NMDAR activity, in words” value in data set [2] is reported as “could not effectively block NMDAR activity”. This compound also came in with an IC50 in data set [1] of 19.3 ± 0.47 nM.

On to `CCOC(=O)C1CCc2nc3cc(-c4ccc(F)cc4)ccc3c(N)c2C1` (stereo not drawn) [Compound 107, ethyl 9-amino-6-(4-fluorophenyl)-1,2,3,4-tetrahydroacridine-2-carboxylate], for which the 50% inhibitory concentration (IC50) was 15800 ± 3440 nM in data set [2], 135 ± 10.3 nM in data set [1] and 1350 ± 90 nM on BChE from equine serum.

Consider `Nc1c2c(nc3cc(-c4cncnc4)ccc13)CCCC2` [Compound 203, 6-(pyrimidin-5-yl)-1,2,3,4-tetrahydroacridin-9-amine], for which the IC50 in data set [2] came to 28100 ± 5100 nM; in data set [1] it was 18.5 ± 2.09 nM; against BChE from equine serum, 1500 ± 200 nM. Further, in data set [2], the “antagonism of NMDAR activity, in words” value is “effective in antagonizing NMDAR activity”. Moreover, the “cytotoxicity on HepG2 cells, in words” value with HepG2 cells is “slight toxicity”.

For `Nc1c2c(nc3cc(-c4cc[nH]n4)ccc13)CCCC2` [Compound 204, 6-(1H-pyrazol-3-yl)-1,2,3,4-tetrahydroacridin-9-amine], in data set [2], inhibition was half-maximal at 14600 ± 4320 nM (IC50); the inhibition at 100 µM is roughly 100%; the “antagonism of NMDAR activity, in words” value is “effective in antagonizing NMDAR activity”. For the same compound, the “cytotoxicity on HepG2 cells, in words” value in the data set with HepG2 cells is reported as “non-toxic”. In data set [1], this compound yielded a half-inhibitory concentration (IC50) of 137 ± 7.35 nM. On BChE from equine serum, the IC50 was 960 ± 70 nM and the “IC50 values (mean ± SD) BChE” value is on record as “submicromolar”.

Take `N#Cc1ccc(-c2ccc3c(N)c4c(nc3c2)CCCC4)cc1` [Compound 205, 4-(9-amino-5,6,7,8-tetrahydroacridin-3-yl)benzonitrile]: in data set [2], the IC50 is 2840 ± 460 nM; the inhibition at 100 µM is roughly 100%; the “antagonism of NMDAR activity, in words” value is given as “effective in antagonizing NMDAR activity”. The “cytotoxicity on HepG2 cells, in words” value in the data set on HepG2 cells is “slight toxicity”. In addition, the IC50 in data set [1] was found to be 84.2 ± 1.8 nM. Moreover, on BChE from equine serum, the IC50 turned out to be 700 ± 80 nM and the “IC50 values (mean ± SD) BChE” value is on record as “submicromolar”.

In the case of `Nc1c2c(nc3cc(-c4ccc(OC(F)(F)F)cc4)ccc13)CCCC2` [Compound 206, 6-(4-(trifluoromethoxy)phenyl)-1,2,3,4-tetrahydroacridin-9-amine], in data set [2], 9190 ± 2680 nM corresponded to half-maximal inhibition (IC50); the inhibition at 100 µM was roughly 100%; the “antagonism of NMDAR activity, in words” value is recorded as “effective in antagonizing NMDAR activity”. In data set [1], this compound displayed an IC50 of 184 ± 19.2 nM. In addition, at BChE from equine serum, the IC50 was 1210 ± 160 nM.

In the case of `Nc1c2c(nc3cc(-c4ccc(F)cc4)ccc13)CCCC2` [Compound 209, 6-(4-fluorophenyl)-1,2,3,4-tetrahydroacridin-9-amine], in data set [2], 3360 ± 860 nM corresponded to half-maximal inhibition (IC50), the “fold increase in NMDAR potency compared to 107” value is recorded as “About 4 fold”, the inhibition at 50 µM was roughly 100% and the inhibition at 100 µM is roughly 100%. Further, the “antagonism of NMDAR activity, in words” value in data set [2] was “effective in antagonizing NMDAR activity”. For the same compound, in the data set with HepG2 cells, the “cytotoxicity on HepG2 cells, in words” value is given as “non-toxic”. The same compound yielded an IC50 in data set [1] of 76 ± 3.79 nM. This compound also gave an IC50 at BChE from equine serum of 1030 ± 170 nM.

In the case of `Nc1c2c(nc3cc(-c4ccc(C(F)(F)F)cc4)ccc13)CCCC2` [Compound 211, 6-(4-(trifluoromethyl)phenyl)-1,2,3,4-tetrahydroacridin-9-amine], in data set [3], the “condensed nuclei / viable cells” value is reported as “clear decrease in the number of condensed nuclei”; the “decrease in MAP2 positive cells and loss of neuronal architecture caused by glutamate” value is “prevented”. Moreover, in data set [2], the IC50 was 490 ± 140 nM, the inhibition at 50 µM is roughly 100%, the inhibition at 100 µM was roughly 100% and the “category of NMDAR inhibitor” value was “potent (potent (IC50 < 5 μM))”. Further, in data set [2], the “antagonism of NMDAR activity, in words” value is “effective in antagonizing NMDAR activity”. Further, in data set [2] (5 μM, with NMDAR agonists and Ca2+ (Fig. 2B)), the “number of punctate cells” value was “Reduction in the number of punctate cells”. In the data set on HepG2 cells, the “cytotoxicity on HepG2 cells, in words” value is “slight toxicity”. In data set [1], this compound displayed an IC50 of 74.6 ± 8.29 nM. Moreover, at BChE from equine serum, inhibition was half-maximal at 3970 ± 710 nM (IC50).

For `Nc1c2c(nc3cc(-c4ccoc4)ccc13)CCCC2` [Compound 212, 6-(furan-3-yl)-1,2,3,4-tetrahydroacridin-9-amine], in data set [2], it took 16400 ± 2760 nM to reach half-maximal inhibition (IC50) and the “antagonism of NMDAR activity, in words” value is recorded as “effective in antagonizing NMDAR activity”. Besides, in the data set with HepG2 cells, the “cytotoxicity on HepG2 cells, in words” value is listed as “non-toxic”. The IC50 in data set [1] is 53.6 ± 4.39 nM. Also, on BChE from equine serum, 990 ± 50 nM corresponded to half-maximal inhibition (IC50) and the “IC50 values (mean ± SD) BChE” value is recorded as “submicromolar”.

Consider `Nc1c2c(nc3cc(-c4cccnc4)ccc13)CCCC2` [Compound 214, 6-(pyridin-3-yl)-1,2,3,4-tetrahydroacridin-9-amine], for which the IC50 amounted to 38800 ± 9640 nM in data set [2], 49.4 ± 2.37 nM in data set [1] and 820 ± 90 nM against BChE from equine serum. Further, the “antagonism of NMDAR activity, in words” value in data set [2] was “effective in antagonizing NMDAR activity”. Further, in the data set with HepG2 cells, the “cytotoxicity on HepG2 cells, in words” value was “non-toxic”. Moreover, the “IC50 values (mean ± SD) BChE” value against BChE from equine serum is recorded as “submicromolar”.

Take `C[C@]12N[C@H](Cc3ccccc31)c1ccccc12` [MK-801, reference compound]: the “condensed nuclei / viable cells” value in data set [3] is “prevented”.
